# Paper PMC12564498, “Benzo[d]imidazole–Naphthalen-Arylmethanone Regioisomers as CB1 Ligands: Evaluation of Agonism via an Indirect Cytotoxicity-Based Approach” (International Journal of Molecular Sciences, 2025)
# Values joined by “and” are separate entries in the source; they are usually repeats but may differ in a detail not shown here. Identical values can stand only once.
# Tested on: U87MG cells
# Assay: cells
# Details: 0.1 μM, 72 h, MTT, n = 3
# Experimental: (§1) HEK293, U87MG, and HL-60 cell lines were seeded in a flat-bottom 96-well plate at a density of 10,000 cells per well. […] All compounds were incubated at 0.1 μM in 200 μL of culture medium supplemented with 10% FBS, in a flat-bottom 96-well plate at a density of 10,000 cells per well, at 37 °C for 72 h. Next, 20 μL of a 5 mg/mL MTT solution was added, and the cells were incubated at 37 °C for 4 h. Then, they were solubilized with 10% sodium dodecyl sulfate (SDS) in 0.1 mM HCl and incubated overnight at 37 °C. Formazan absorbance of each well was measured using the EPOCH microplate reader (Biotek, Winooski, VT, USA) at a wavelength of 570 nm. […]
# (§2) promyelocytic leukemia cells (HL-60) were maintained at 5% CO2 and 37 °C in DMEM, EMEM and RPMI medium, respectively containing 10% Fetal Bovine Serum and 100 U/mL penicillin and 100 […]
# (§3) Cell viability: ([MTT - (3-(4,5-dimethylthiazol-2-yl)-2,5-diphenyltetrazolium bromide) - formazan] HEK293, U87MG, and HL-60 cells were first quantified to determine the exact number to be used in […]
# (§4) with the Beer-Lambert(1).
# (§5) HEK293, U87MG and HL-60 cell lines were seed in a flat-bottom 96-wells plate at a density of 10,000 […]
# (§6) concentrations (0.001 μM to 10 μM) in 200 μL of respective culture medium supplemented with 10% fetal bovine serum (FBS), at 37 °C for 72 hours. Subsequently, 20 μL of 5 mg/mL MTT solution was added to each well, and cells were incubated at 37 °C for 4 h. The resulting formazan crystals were then solubilized with 10% sodium dodecyl sulfate (SDS) in 0.1 mM HCl, followed by overnight incubation at 37 °C. Untreated cells were used as the control, 0.1% of dimethyl sulfoxide (DMSO) as the vehicle control, and 0.2 % of Triton X-100 as a positive control for cell death. IC 50 toxicity values […]
# (§7) same conditions described in the previous paragraph. […]
# (§8) determined IC50. The stimulation with both CB ligands was performed simultaneously.
# (§9) All compounds were incubated at 0.1 μM in 200 μL of culture medium supplemented with 10% FBS, in a flat-bottom 96-well plate at a density of 10,000 cells per well, at 37°C for 72 hours. Next, 20 μL of a 5 mg/mL MTT solution was added, and the cells were incubated at 37°C for 4 hours. Then, they were solubilized with 10% sodium dodecyl sulfate (SDS) in 0.1 mM HCl and incubated overnight at 37°C. Formazan absorbance of each well was measured using the EPOCH microplate reader (Biotek, USA) at a wavelength of 570 nm.
# (§10) [1]Mosorov, V., The Lambert-Beer law in time domain form and its application.
row,Structure (SMILES),% Toxicity U87MG [%]
1,O=C(c1cccc2ccccc12)n1c(-c2ccon2)nc2cc(Cl)ccc21 [Compound 4d],50 ± 14

# Same assay, conditions: Homo sapiens, U-87 MG, 72 h, read-out: % Toxicity U87MG, 0.1 μM, 72 h, MTT, n = 3
row,Structure (SMILES),cytotoxicity at 0.1 µM [%]
1,O=C(c1cccc2ccccc12)n1c(-c2ccon2)nc2cc(Cl)ccc21 [Compound 4d],50
2,"O=C(c1cccc2ccccc12)n1c(-c2ccco2)nc2ccc(F)cc21 [Compound 5f′, (6-fluoro-2-(furan-2-yl)-1H-benzo[d]imidazol-1-yl)(naphthalen-1-yl)methanone]",66

# Same assay, conditions: Homo sapiens, U-87 MG, 72 h, read-out: IC50 toxicity U87MG, MTT, 72 h
row,Structure (SMILES),IC50 [µM]
1,"O=C(c1cccc2ccccc12)n1c(-c2ccco2)nc2ccc(F)cc21 [Compound 5f′, (6-fluoro-2-(furan-2-yl)-1H-benzo[d]imidazol-1-yl)(naphthalen-1-yl)methanone]",0.089

# Same assay, conditions: MTT dose–response curve, unit not given
row,Structure (SMILES),IC50 U87MG cells as printed in the figure picture
1,"O=C(c1cccc2ccccc12)n1c(-c2ccco2)nc2cc(F)ccc21 [Compound 5f, (5-fluoro-2-(furan-2-yl)-1H-benzo[d]imidazol-1-yl)(naphthalen-1-yl)methanone]",8.963 x 10^-8

# Tested on: HL-60 cells
# Assay: cells
# Details: 0.1 μM, 72 h, MTT, n = 3
# Experimental: as §1, §2, §3, §4, §5, §6, §7, §8, §9, §10
row,Structure (SMILES),% Toxicity HL-60
1,O=C(c1cccc2ccccc12)n1c(-c2ccco2)nc2ccc(Cl)cc21 [Compound 4f′],10 ± 19%
2,"O=C(c1cccc2ccccc12)n1c(-c2ccco2)nc2ccc(F)cc21 [Compound 5f′, (6-fluoro-2-(furan-2-yl)-1H-benzo[d]imidazol-1-yl)(naphthalen-1-yl)methanone]",does not show any toxicity

# Same assay, conditions: Homo sapiens, HL-60, 72 h, read-out: % Toxicity HL-60
row,Structure (SMILES),cytotoxicity at 0.1 µM [%]
1,O=C(c1cccc2ccccc12)n1c(-c2ccco2)nc2ccc(Cl)cc21 [Compound 4f′],10

# Tested on: HEK293 cells
# Assay: cells
# Details: 0.1 μM, 72 h, MTT, n = 3
# Experimental: as §1, §2, §3, §4, §5, §6, §7, §8, §9, §10
row,Structure (SMILES),% Toxicity HEK293T [%]
1,O=C(c1cccc2ccccc12)n1c(-c2ccco2)nc2ccc(Cl)cc21 [Compound 4f′],50 ± 23
2,O=C(c1cccc2ccccc12)n1c(-c2ccon2)nc2cc(Cl)ccc21 [Compound 4d],10 ± 9

# Same assay, conditions: Homo sapiens, HEK293, 72 h, read-out: % Toxicity HEK293T, 0.1 μM, 72 h, MTT, n = 3
row,Structure (SMILES),cytotoxicity at 0.1 µM [%]
1,O=C(c1cccc2ccccc12)n1c(-c2ccco2)nc2ccc(Cl)cc21 [Compound 4f′],50
2,O=C(c1cccc2ccccc12)n1c(-c2ccon2)nc2cc(Cl)ccc21 [Compound 4d],10

# Target: T1, human cannabinoid CB1 receptor (Homo sapiens, UniProt P21554)
# T1 construct: purchased Perkin Elmer Inc., Singapore Pte; Ltd. RBHCB1M400UA; host or cells: HEK293-EBNA cell membranes (overexpressing)
# Assay: biochemical
# Assay type: binding
# Details: not given
# T1 sequence (P21554 whole entry): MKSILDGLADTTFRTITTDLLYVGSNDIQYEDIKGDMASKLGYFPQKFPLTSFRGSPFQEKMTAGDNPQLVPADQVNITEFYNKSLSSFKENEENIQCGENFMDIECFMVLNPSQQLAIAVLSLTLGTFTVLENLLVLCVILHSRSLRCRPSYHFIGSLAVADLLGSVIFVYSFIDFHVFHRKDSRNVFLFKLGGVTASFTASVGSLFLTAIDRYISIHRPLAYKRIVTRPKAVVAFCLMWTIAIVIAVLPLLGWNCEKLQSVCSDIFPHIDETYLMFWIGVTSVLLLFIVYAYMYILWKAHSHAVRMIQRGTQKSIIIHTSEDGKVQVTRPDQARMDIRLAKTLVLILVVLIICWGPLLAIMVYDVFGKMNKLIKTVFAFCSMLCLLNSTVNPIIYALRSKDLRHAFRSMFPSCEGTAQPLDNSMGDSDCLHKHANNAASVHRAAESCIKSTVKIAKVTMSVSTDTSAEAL
row,Structure (SMILES),IC50 [µM]
1,O=C(c1cccc2ccccc12)n1c(-c2ccon2)nc2ccc(Cl)cc21 [4d′],> 10

# Same assay, conditions: CB1 Ki
row,Structure (SMILES),Ki [µM]
1,O=C(c1cccc2ccccc12)n1c(-c2ccon2)nc2ccc(Cl)cc21 [4d′],> 10

# Same assay, conditions: Cheng–Prusoff from IC50, [3H]CP-55940 0.5 nM, mean ± SEM n = 3; read-out: CB1 Ki
row,Structure (SMILES),Ki
1,O=C(c1cccc2ccccc12)n1c(-c2ccco2)nc2ccc(Cl)cc21 [Compound 4f′],> 10 µM
2,"O=C(c1cccc2ccccc12)n1c(-c2ccco2)nc2cc(F)ccc21 [Compound 5f, (5-fluoro-2-(furan-2-yl)-1H-benzo[d]imidazol-1-yl)(naphthalen-1-yl)methanone]",~1.48 µM and 1.48 µM
3,O=C(c1cccc2ccccc12)n1c(-c2ccon2)nc2cc(Cl)ccc21 [Compound 4d],~1.86 µM and 1.86 µM
4,"O=C(c1cccc2ccccc12)n1c(-c2ccco2)nc2ccc(F)cc21 [Compound 5f′, (6-fluoro-2-(furan-2-yl)-1H-benzo[d]imidazol-1-yl)(naphthalen-1-yl)methanone]",~2.12 µM and 2.12 µM

# Same assay, conditions: [3H]CP-55940 0.5 nM, hCB1 HEK293-EBNA membranes, mean ± SEM n = 3; read-out: CB1 IC50
row,Structure (SMILES),IC50 [µM]
1,O=C(c1cccc2ccccc12)n1c(-c2ccco2)nc2ccc(Cl)cc21 [Compound 4f′],> 10
2,"O=C(c1cccc2ccccc12)n1c(-c2ccco2)nc2cc(F)ccc21 [Compound 5f, (5-fluoro-2-(furan-2-yl)-1H-benzo[d]imidazol-1-yl)(naphthalen-1-yl)methanone]",6.03 ± 4.09
3,O=C(c1cccc2ccccc12)n1c(-c2ccon2)nc2cc(Cl)ccc21 [Compound 4d],7.58 ± 4.21
4,"O=C(c1cccc2ccccc12)n1c(-c2ccco2)nc2ccc(F)cc21 [Compound 5f′, (6-fluoro-2-(furan-2-yl)-1H-benzo[d]imidazol-1-yl)(naphthalen-1-yl)methanone]",8.65 ± 3.11

# Same assay, conditions: displacement of [3H]CP-55940 at 10 μM compound; read-out: CB1 Max Tested µM (% Displacement)
row,Structure (SMILES),inhibition at 10 µM [%]
1,O=C(c1cccc2ccccc12)n1c(-c2ccon2)nc2ccc(Cl)cc21 [4d′],47
2,O=C(c1cccc2ccccc12)n1c(-c2ccco2)nc2ccc(Cl)cc21 [Compound 4f′],47.5
3,"O=C(c1cccc2ccccc12)n1c(-c2ccco2)nc2cc(F)ccc21 [Compound 5f, (5-fluoro-2-(furan-2-yl)-1H-benzo[d]imidazol-1-yl)(naphthalen-1-yl)methanone]",> 55
4,O=C(c1cccc2ccccc12)n1c(-c2ccon2)nc2cc(Cl)ccc21 [Compound 4d],> 55
5,"O=C(c1cccc2ccccc12)n1c(-c2ccco2)nc2ccc(F)cc21 [Compound 5f′, (6-fluoro-2-(furan-2-yl)-1H-benzo[d]imidazol-1-yl)(naphthalen-1-yl)methanone]",> 55

# Target: T2, human recombinant cannabinoid CB2 receptor (Homo sapiens, UniProt P34972)
# T2 construct: purchased Perkin Elmer Inc., Singapore Pte; Ltd. RBXCB2M400UA; host or cells: HEK293-EBNA cell membranes (overexpressing)
# Assay: CB2 radioligand displacement binding assay ([3H]CP-55940)
# Details: Cheng–Prusoff from IC50, [3H]CP-55940 0.5 nM, mean ± SEM n = 3
# T2 sequence (P34972 whole entry): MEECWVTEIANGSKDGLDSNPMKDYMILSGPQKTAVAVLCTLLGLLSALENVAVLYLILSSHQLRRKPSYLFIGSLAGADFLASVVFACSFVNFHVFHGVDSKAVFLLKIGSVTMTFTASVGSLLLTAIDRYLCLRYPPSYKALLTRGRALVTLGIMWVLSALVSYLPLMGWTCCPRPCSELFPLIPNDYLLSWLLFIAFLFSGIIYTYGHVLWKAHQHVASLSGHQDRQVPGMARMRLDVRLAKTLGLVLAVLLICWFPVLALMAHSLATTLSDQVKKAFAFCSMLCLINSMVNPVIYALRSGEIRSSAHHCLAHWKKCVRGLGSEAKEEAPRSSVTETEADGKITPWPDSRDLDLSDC
row,Structure (SMILES),Ki [µM]
1,O=C(c1cccc2ccccc12)n1c(-c2ccon2)nc2ccc(Cl)cc21 [4d′],> 10
2,O=C(c1cccc2ccccc12)n1c(-c2ccco2)nc2ccc(Cl)cc21 [Compound 4f′],> 10
3,"O=C(c1cccc2ccccc12)n1c(-c2ccco2)nc2cc(F)ccc21 [Compound 5f, (5-fluoro-2-(furan-2-yl)-1H-benzo[d]imidazol-1-yl)(naphthalen-1-yl)methanone]",> 10
4,O=C(c1cccc2ccccc12)n1c(-c2ccon2)nc2cc(Cl)ccc21 [Compound 4d],> 10
5,"O=C(c1cccc2ccccc12)n1c(-c2ccco2)nc2ccc(F)cc21 [Compound 5f′, (6-fluoro-2-(furan-2-yl)-1H-benzo[d]imidazol-1-yl)(naphthalen-1-yl)methanone]",> 10

# Same assay, conditions: [3H]CP-55940 0.5 nM, hCB2 HEK293-EBNA membranes, mean ± SEM n = 3
row,Structure (SMILES),IC50 [µM]
1,O=C(c1cccc2ccccc12)n1c(-c2ccon2)nc2ccc(Cl)cc21 [4d′],> 10
2,O=C(c1cccc2ccccc12)n1c(-c2ccco2)nc2ccc(Cl)cc21 [Compound 4f′],> 10
3,"O=C(c1cccc2ccccc12)n1c(-c2ccco2)nc2cc(F)ccc21 [Compound 5f, (5-fluoro-2-(furan-2-yl)-1H-benzo[d]imidazol-1-yl)(naphthalen-1-yl)methanone]",> 10
4,O=C(c1cccc2ccccc12)n1c(-c2ccon2)nc2cc(Cl)ccc21 [Compound 4d],> 10
5,"O=C(c1cccc2ccccc12)n1c(-c2ccco2)nc2ccc(F)cc21 [Compound 5f′, (6-fluoro-2-(furan-2-yl)-1H-benzo[d]imidazol-1-yl)(naphthalen-1-yl)methanone]",> 10

# Same assay, conditions: displacement of [3H]CP-55940 at 10 μM compound; read-out: CB2 Max Tested µM (% Displacement)
row,Structure (SMILES),inhibition at 10 µM [%]
1,O=C(c1cccc2ccccc12)n1c(-c2ccon2)nc2ccc(Cl)cc21 [4d′],42
2,O=C(c1cccc2ccccc12)n1c(-c2ccco2)nc2ccc(Cl)cc21 [Compound 4f′],53.2
3,"O=C(c1cccc2ccccc12)n1c(-c2ccco2)nc2cc(F)ccc21 [Compound 5f, (5-fluoro-2-(furan-2-yl)-1H-benzo[d]imidazol-1-yl)(naphthalen-1-yl)methanone]",54.5
4,O=C(c1cccc2ccccc12)n1c(-c2ccon2)nc2cc(Cl)ccc21 [Compound 4d],15
5,"O=C(c1cccc2ccccc12)n1c(-c2ccco2)nc2ccc(F)cc21 [Compound 5f′, (6-fluoro-2-(furan-2-yl)-1H-benzo[d]imidazol-1-yl)(naphthalen-1-yl)methanone]",47
